Reference: patent publication US20220206003A1, “BIOMARKERS FOR PREDICTING RESISTANCE TO CANCER DRUGS” (INSTITUT CURIE, priority 2019, published 2022)
Like-named read-outs stand apart in the source and are kept apart here.

What was measured:
[1] = system: HBCx-95 xenografts (triple negative breast cancer PDX); test: Capecitabine treatment of HBCx-95 patient-derived xenografts (relative tumor volume, response); type: in vivo, Swiss nude mice; settings: HBCx-95 xenograft, mouse #40, oral 540 mg/kg/day, second round after recurrence
Description: Female Swiss nude mice were purchased from Charles River Laboratories and maintained under specific pathogen-free conditions. Their care and housing were in accordance with institutional guidelines and the rules of the French Ethics Committee (project authorization no. 02163.02). A PDX model of luminal breast cancer (HBCx-22) was previously established at Institut Curie from untreated early-stage luminal breast cancer with informed consent from the patient. Acquisition of a resistant phenotype for a derivative of HBCx-22, HBCx-22-TamR, was previously established and maintained. A PDX from a residual triple negative breast cancer post neo-adjuvant chemotherapy (HBCx-95) was previously established at Institut Curie with informed consent from the patient. HBCx-95 xenografts (n=6) were treated with Capecitabine (Xeloda, Roche Laboratories) orally at a dose of 540 mg/kg/day, 5 days a week for 6 weeks. Relative tumor volumes (RTV, mm3) were calculated. Mice with recurrent tumors were treated for a second round of Capecitabine when PDX reached a volume of over 200 mm^3 (mice #35, #40 & #33).

[2] = system: HBCx-22 / HBCx-22-TamR luminal ER+ breast PDX; settings: cited from earlier work

Compound | response of recurrent PDX tumor to a second round of Capecitabine [1] | response of PDX to Tamoxifen ([2]; HBCx-22-TamR tumor derivative, previously characterized) | response of PDX to Tamoxifen ([2]; HBCx-22 luminal ER+ breast PDX)
CCCCCOC(=O)Nc1nc(=O)n([C@@H]2O[C@H](C)[C@@H](O)[C@H]2O)cc1F [Capecitabine] | did not respond | – | –
CC/C(=C(\c1ccccc1)c1ccc(OCCN(C)C)cc1)c1ccccc1 [Tamoxifen] | – | acquired resistance | responsive
